Data reported in patent publication US5691349A, “Quinclidine derivatives as squalene synthase inhibitors” (Zeneca Limited, priority 1992, dated 1997).
pIC50: −log10 of the molar value. Counter-ions that a name gives are not always drawn.

How the values were obtained:
squalene synthetase = biological target: T1, squalene synthetase (Rattus norvegicus, UniProt Q02769); assay: Inhibition of Squalene Synthetase (prevention of squalene formation from tritiated farnesyl pyrophosphate, rat liver microsomal protein); format: biochemical; settings: rat liver microsomes; 1-[3H]-farnesyl pyrophosphate 20 μM; 37° C.; 15 minutes; read-out: IC50 (concentration which results in a 50% inhibition of squalene production)
T1 construct: rat liver microsomal protein (20 μg); from tissue; host or cells: rat liver microsomes
T1 sequence (Q02769 1-416): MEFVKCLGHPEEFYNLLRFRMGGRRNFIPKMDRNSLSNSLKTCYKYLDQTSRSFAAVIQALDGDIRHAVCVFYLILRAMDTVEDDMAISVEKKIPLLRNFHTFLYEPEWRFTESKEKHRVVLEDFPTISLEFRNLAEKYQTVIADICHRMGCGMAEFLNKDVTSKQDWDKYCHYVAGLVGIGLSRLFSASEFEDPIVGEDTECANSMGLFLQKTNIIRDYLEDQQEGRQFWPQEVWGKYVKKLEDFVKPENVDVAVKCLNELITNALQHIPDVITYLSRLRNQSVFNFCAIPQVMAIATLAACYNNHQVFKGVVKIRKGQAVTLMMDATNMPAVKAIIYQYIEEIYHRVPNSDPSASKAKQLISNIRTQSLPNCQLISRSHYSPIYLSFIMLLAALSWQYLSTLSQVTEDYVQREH
Procedure: (a) Inhibition of Squalene Synthetase
In this test, the ability of a compound to prevent the formation of squalene from a radioactive substrate (tritiated farnesyl pyrophosphate) is assessed.
The test compound is incubated at a concentration of 25 micromolar in 200 μl of a buffered solution containing potassium phosphate (50 mM), MgCl2 (4.95 mM), KF (9.9 mM), NADPH (0.9 mM) and rat liver microsomal protein (20 μg). Rat liver microsomes are prepared by the method described in published European Patent Application No. 324,421 and stored in liquid nitrogen prior to assay. Assay vials are kept at 37° C. throughout the incubation.
The reaction is started with the addition of the substrate (1-[^3 H]-farnesyl pyrophosphate), final concentration 20 μM, and stopped after 15 minutes reaction time with the addition of 50 μl of 4% KOH. The reaction products are separated from unreacted substrate after application to a C-18 octadecyl 1 ccBond column (Analytichem Int product No. 617101). An aqueous fraction is eluted with 250 μl of 0.1M KOH. Squalene is then eluted with 1.0 ml 10% ethylacetate in hexane and radioactivity determined. The difference in radioactivity in the presence and absence of the test compound is used to determine the level of inhibition. […] The IC50 can then be determined from a plot of percentage inhibition against concentration of test compound.

[1] = system: de novo hepatic cholesterol synthesis; assay: Acute rat cholesterol synthesis assay (de novo hepatic cholesterol synthesis from 14C-acetate); format: in vivo; settings: female rats, oral gavage, ip or iv dosing (route not given)
Procedure: (b) Acute rat cholesterol synthesis assay.
This is an acute in vivo test in the rat to measure de novo hepatic cholesterol synthesis from exogenously administered ^14 C-acetate.
Female rats (35-55 g) are housed in reverse lighting conditions (red light from 0200 h-1400 h) for a period of about 2 weeks prior to test. Animals are allowed free access to chow and drinking water throughout this period. At test, animals should weigh 125-150 g.
Test compounds may be administered by oral gavage, dissolved or suspended in 0.5% polysorbate, or by ip or iv dosing. Control animals receive vehicle alone. After 1 hour the rats are injected ip with 25 μCi [2-^14 C]-acetate (NEN DUPONT. specific activity, 45-60 mCi/mmol NEC-085H, or AMERSHAM specific activity, 50-60 mCi/mmol CFA 14) in a volume of 0.25 ml saline (100 μCi/ml). After a further hour, rats are terminally anaesthetised with halothane and a blood sample obtained from the abdominal vena cava.
1 ml of plasma is lyophilised and then saponified in 2 ml ethanolic KOH (1 part 33% KOH, 9 parts ethanol) at 75° C. for 2 hours. After addition of an equal quantity of water, non-saponifiable lipids are extracted with two 5 ml volumes of hexane. The hexane extracts are evaporated to dryness and the residues dissolved in ethanol to determine cholesterol specific radioactivity. EC50 values can be determined in the standard way.

Compound | pIC50 (squalene synthetase) | ED50 [1] [mg/kg]
CCCCOc1ccc(CCC2CN3CCC2CC3)cc1 (centres unmarked) [Example 4, 3-[2-(4-butoxyphenyl)ethyl]-quinuclidine hydrochloride] | 7.48 | –
CCCCCc1ccc(C#CC2(O)CN3CCC2CC3)cc1 (centres unmarked) [Example 18, 3-[2-(4-pentylphenyl)ethynyl]-3-hydroxyquinuclidine] | – | ~21.5
